Columns and labels:
[1] = xn = mol fraction of the nth substance listed; settings: 100.8 kPa, Liquid
[2] = refractive index (Na D-line) (dimensionless); xn = mol fraction of the nth substance listed; settings: 100.8 kPa, Liquid, Standard Abbe refractometry

CC1CCCCC1 [methylcyclohexane] + CCO
Settings	mass density, 288.15 K [kg/m3]	mass density, 298.15 K [kg/m3]	mass density, 308.15 K [kg/m3]	refractive index, 288.15 K	refractive index, 298.15 K	refractive index, 308.15 K	viscosity, 288.15 K [mPa·s]	viscosity, 298.15 K [mPa·s]	viscosity, 308.15 K [mPa·s]
[1], x2 = 0	773.4	765	756.3	–	–	–	0.784	0.685	0.6
[1], x2 = 0.05	773.4	764.6	755.8	–	–	–	0.771	0.674	0.589
[1], x2 = 0.1	773.4	764.7	755.7	–	–	–	0.769	0.67	0.588
[1], x2 = 0.15	773.7	764.8	755.8	–	–	–	0.77	0.667	0.585
[1], x2 = 0.2	774	765.1	756.1	–	–	–	0.779	0.673	0.588
[1], x2 = 0.25	774.3	765.4	756.4	–	–	–	0.793	0.681	0.593
[1], x2 = 0.3	774.7	765.8	756.8	–	–	–	0.811	0.694	0.602
[1], x2 = 0.35	775.1	766.2	757.2	–	–	–	0.831	0.707	0.612
[1], x2 = 0.4	775.7	766.8	757.8	–	–	–	0.853	0.722	0.623
[1], x2 = 0.45	776.3	767.4	758.4	–	–	–	0.877	0.739	0.635
[1], x2 = 0.5	777	768.1	759.1	–	–	–	0.902	0.757	0.65
[1], x2 = 0.55	777.8	768.9	759.9	–	–	–	0.928	0.778	0.666
[1], x2 = 0.6	778.7	769.8	760.8	–	–	–	0.955	0.799	0.683
[1], x2 = 0.65	779.6	770.8	761.8	–	–	–	0.983	0.82	0.7
[1], x2 = 0.7	780.8	772	763.1	–	–	–	1.012	0.843	0.72
[1], x2 = 0.75	782.1	773.4	764.5	–	–	–	1.043	0.867	0.74
[1], x2 = 0.8	783.6	774.9	766	–	–	–	1.077	0.894	0.762
[1], x2 = 0.85	785.4	776.7	767.9	–	–	–	1.114	0.926	0.79
[1], x2 = 0.9	787.7	779	770.2	–	–	–	1.164	0.971	0.828
[1], x2 = 0.95	790.4	781.8	773	–	–	–	1.225	1.021	0.867
[2], x2 = 0	–	–	–	1.42578	1.42053	1.41537	–	–	–
[2], x2 = 0.05	–	–	–	1.42405	1.41871	1.41358	–	–	–
[2], x2 = 0.1	–	–	–	1.42223	1.4169	1.41176	–	–	–
[2], x2 = 0.15	–	–	–	1.42037	1.41505	1.40993	–	–	–
[2], x2 = 0.2	–	–	–	1.41843	1.41313	1.40802	–	–	–
[2], x2 = 0.25	–	–	–	1.41639	1.41112	1.40603	–	–	–
[2], x2 = 0.3	–	–	–	1.41426	1.40902	1.40396	–	–	–
[2], x2 = 0.35	–	–	–	1.41199	1.40679	1.40175	–	–	–
[2], x2 = 0.4	–	–	–	1.4096	1.40442	1.39942	–	–	–
[2], x2 = 0.45	–	–	–	1.40706	1.40192	1.39695	–	–	–
[2], x2 = 0.5	–	–	–	1.40437	1.39927	1.39433	–	–	–
[2], x2 = 0.55	–	–	–	1.4015	1.39644	1.39153	–	–	–
[2], x2 = 0.6	–	–	–	1.39844	1.39343	1.38856	–	–	–
[2], x2 = 0.65	–	–	–	1.39516	1.3902	1.38538	–	–	–
[2], x2 = 0.7	–	–	–	1.39166	1.38674	1.38197	–	–	–
[2], x2 = 0.75	–	–	–	1.38785	1.38298	1.37827	–	–	–
[2], x2 = 0.8	–	–	–	1.38377	1.37896	1.37432	–	–	–
[2], x2 = 0.85	–	–	–	1.37933	1.37459	1.37001	–	–	–
[2], x2 = 0.9	–	–	–	1.37449	1.36985	1.36536	–	–	–
[2], x2 = 0.95	–	–	–	1.36921	1.36474	1.36042	–	–	–

Reference: the NIST ThermoML archive (doi:10.1021/je050031f)
